Marks after values point to notes of the source that are not given here. Where no end group is shown, it is not given here.
Assays:
[1] = tested on: Esophageal cancer tumor cells; test: MTT proliferation inhibition, esophageal cancer cells; type: cell-based, human; set-up: concentration or dose not given beside the values; conditions: 48 h
Experimental: (§1) The activity of mPEG-HM-1 to inhibit the growth of various tumor cells was examined by MTT assay. The tumor cells were cultured to a concentration of 90% or more in a 37° C., 5% CO2 incubator and collected by trypsinization. The cells were resuspended in the culture medium and counted under a microscope to adjust the cell concentration to 2×10^4 cells/mL, the cell suspension was inoculated into a 96-well plate at 100 μL/well and incubated overnight at 37° C. in a 5% CO2 incubator. mPEG-HM-1 was diluted with the culture solution to each predetermined concentration. Docetaxel is diluted to the final concentration with the culture medium. After the cells were fully attached, each dilution was added to a 96-well plate (100 μL/well). The mPEG-HM-1 dilution was added as a drug-administered group, and docetaxel was added as a positive control group, and a culture solution without any drug was used as a negative control group. Incubate for 48 h at 37° C. in a 5% CO2 incubator. 5 mg/mL of MTT was added to a 96-well plate at 20 μL per well, and incubation was continued for 4 hours. The medium was aspirated, dissolved in 150 μL of DMSO per well, and gently mixed by shaking for 10 min. The absorbance was measured at a measurement wavelength of 570 nm and a reference wavelength of 630 nm using a microplate reader, and the rate of growth inhibition (proliferation inhibition, PI) was calculated. The formula is as follows: PI (%)=1−administration group/negative group
(§2) The test was repeated 3 times independently, and the results obtained by the test were expressed as mean±SD, and the test results are shown in Table 15 to Table 18.

[2] = tested on: Colorectal cancer tumor cells; test: MTT proliferation inhibition, colorectal cancer cells; type: cell-based, human; set-up: concentration or dose not given beside the values; conditions: 48 h
Experimental: as §1, §2

[3] = tested on: collagen induced arthritis (CIA) in DBA/1 mice; test: Collagen-induced mouse arthritis (CIA) model; type: in vivo; conditions: CIA DBA/1 mice; for Clinical score: maximum score 16
[4] = tested on: carrageenan-induced toe swelling in SD rats; test: Carrageenan-induced acute toe swelling in rats; type: in vivo, rat; set-up: Swelling: unit not given here
Experimental: SD rats were divided into blank model group, dexamethasone-positive group (5 mg/kg) and mPEG-HM-1 test group. The drug was administered once a day, and the model group was given the same volume of normal saline for 3 days and fed normally. At the first hour after the last administration, 0.1 mL of 1% carrageenan was injected subcutaneously into the right hind paw of the rats to induce inflammation. The volume of the foot was measured at 1 h, 3 h, 5 h, and 7 h after inflammation. The degree of swelling of the foot was calculated according to the following formula: the degree of swelling of the foot (mL)=the volume of the foot after inflammation−the volume before inflammation. Record the number of milliliters of spilled liquid (method: use the ballpoint pen to circle as the measurement mark at the protruding point of the right joint, and then put the right hind foot of each mouse into the volume measuring device, so that the hind limb is exposed outside the cylinder, and the depth of the immersion was determined by coinciding the circle with the liquid surface. After the foot enters the liquid, the liquid level rises, and the volume of the overflow liquid is the volume of the right hind foot of the rat, and the normal volume of the right hind foot of each mouse is sequentially determined).

[5] = tested on: choroidal neovascularization in BN rats; test: Laser-induced choroidal neovascularization in BN rats (FFA); type: in vivo, rat
Experimental: 6-8 weeks old male BN rats were anesthetized with 846 compound anesthetic 0.5 mL/kg administered intraperitoneally. The eye drops of compound tropamide eyes were used 5 minutes before laser photocoagulation, and the pupils of both eyes were fully scattered. Fix animals, with the aid of −53.00 D contact lens, around the optic disc and along the same distance from the optic disc 2PD, the laser beam photocoagulation were performed to make a total of 8 photo-condensation spots, with laser wavelength of 647.1 nm, power of 350 mW, photocoagulation spot diameter and time were 50 μm and 0.05 s, respectively. Immediately after photocoagulation, fundus photography was performed. FFA, histopathology and transmission electron microscopy were performed at 3, 7, 14, 21, and 28 days after photocoagulation.
It was confirmed by fundus photography and FFA examination that the fluorescein leakage of photocoagulation peaked on the 21st day after photocoagulation, and histopathological examination was performed at the same time. […] A large number of neovascular vessels were seen, and red blood cells were visible in the lumen. Microscopically, capillary cells in the choroidal melanocytes were cohesively altered and endothelial cells aggregated.
Rats that were successfully modeled were randomly divided into groups of 5 rats each. They were labeled as negative control group, mPEG-SC-HM-1 treatment group, mPEG2-NHS-HM-1 treatment group, mPEG-ALD-HM-1 treatment group and mPEG-bALD-HM-1 treatment group, respectively. Saline, mPEG-HM-1 (see Table 53 for dosing) was administered intravitreally, once daily for 1 week. FFA examinations were performed 3 days, 7 days, 14 days, and 28 days after administration of the modified peptides.

[6] = tested on: retinal neovascular clusters in OIR C57/B16 mice; test: Retinal blood vessels in OIR mice; type: in vivo, mouse; conditions: for Neovascular clusters area: retina evaluated on day 17; for Inhibition rate: neovascular clusters area vs control, day 17
Excerpt: Establishment of the OIR model: Exposure of young mouse and their mothers to 75% hyperoxic environment from day 7 to day 12 after birth of C57/B16 mice caused rapid disappearance of capillaries in the central retina. Upon returning to the indoor air on the 12th day, the retinal blood vessels, upon exposing to hyperoxia, rapidly disappeared, causing extensive abnormal neovascularization, and the central portion of the retina remained largely avascular for a long time. After the blood vessels disappeared completely, on the 13th day, physiological saline (negative control group), mPEG-SC-HM-1, mPEG2-NHS-HM-1, mPEG-ALD10k-HM-1, and mPEG-bALD-HM-1, were administered by intravitreal injection and retinal vessels were evaluated on day 17 (to label unclosed vessels, […] of Texas Red-labeled tomato lectin was injected into the left ventricle and circulated for 5 min).

[7] = 80 mg/kg subcutaneous from day 30 of modeling
[8] = Day 3 after administration, 200 μg intravitreally once daily for 1 week (Table 53)
[9] = Day 3 after administration, 200 μg intravitreally once daily for 1 week (Table 53), total spots 290-296 by table
[10] = Day 7, 200 μg intravitreally once daily for 1 week (Table 53)
[11] = Day 7, 200 μg intravitreally once daily for 1 week (Table 53), total spots 182-188 by table
[12] = Day 14, 200 μg intravitreally once daily for 1 week (Table 53)
[13] = Day 14, 200 μg intravitreally once daily for 1 week (Table 53), total spots 132-138 by table
[14] = Day 28, 200 μg intravitreally once daily for 1 week (Table 53)
[15] = Day 28, 200 μg intravitreally once daily for 1 week (Table 53), total spots 67-71 by table
[16] = 200 μg intravitreal injection on day 13
[17] = 10 mg/kg subcutaneous from day 30 of modeling

Row | Substance | rate of growth inhibition [1] | rate of growth inhibition [2] | Joint swelling [3, 7] | Left and right paw swelling [3, 7] | Clinical score [3, 7] | CNV Incidence rate [5, 8] | leakage Spots # [5, 9] | CNV Incidence rate [5, 10] | leakage Spots # [5, 11] | CNV Incidence rate [5, 12] | leakage Spots # [5, 13] | CNV Incidence rate [5, 14] | leakage Spots # [5, 15] | Neovascular clusters area [6, 16] | Inhibition rate ([6]; 200 μg intravitreal) | further results
1 | mPEG-ALD40k-Arg-Gly-Ala-Asp-Arg-Ala-Gly-Gly-Gly-Gly-Arg-Gly-Asp ({mPEG‑ALD 40 kDa}-RGADRAGGGGRGD) [mPEG-ALD40k-HM-1] | 58.11 ± 14.67% | 70.92 ± 16.52% | 0.77 ± 0.14 mm | 0.79 ± 0.12 mm | 8.97 ± 1.42 | 52.41% | 152 | 50.55% | 92 | 46.97% | 62 | 42.25% | 30 | 0.106 ± 0.010 mm^2 | 52.02%** | Swelling ([4]; 80 mg/kg once a day for 3 days, 1 h after carrageenan): 0.26 ± 0.14; Swelling ([4]; 80 mg/kg once a day for 3 days, 3 h after carrageenan): 0.35 ± 0.13; Swelling ([4]; 80 mg/kg once a day for 3 days, 5 h after carrageenan): 0.43 ± 0.14; Swelling ([4]; 80 mg/kg once a day for 3 days, 7 h after carrageenan): 0.33 ± 0.17; Swelling ([4]; 160 mg/kg once a day for 3 days, 1 h after carrageenan): 0.24 ± 0.13; Swelling ([4]; 160 mg/kg once a day for 3 days, 3 h after carrageenan): 0.34 ± 0.14; Swelling ([4]; 160 mg/kg once a day for 3 days, 5 h after carrageenan): 0.44 ± 0.15; Swelling ([4]; 160 mg/kg once a day for 3 days, 7 h after carrageenan): 0.34 ± 0.15
2 | mPEG-bALD40k-Arg-Gly-Ala-Asp-Arg-Ala-Gly-Gly-Gly-Gly-Arg-Gly-Asp ({mPEG‑bALD 40 kDa}-RGADRAGGGGRGD) [mPEG-bALD40k-HM-1] | 57.19 ± 12.07% | 66.90 ± 16.27% | 0.78 ± 0.16 mm | 0.79 ± 0.13 mm | 9.01 ± 1.45 | 52.22% | 153 | 50.81% | 94 | 47.10% | 65 | 42.03% | 29 | 0.110 ± 0.012 mm^2 | 50.31%** | –
3 | mPEG-bALD5k-Arg-Gly-Ala-Asp-Arg-Ala-Gly-Gly-Gly-Gly-Arg-Gly-Asp ({mPEG‑bALD 5 kDa}-RGADRAGGGGRGD) [mPEG-bALD5k-HM-1] | 45.03 ± 11.46% | 59.35 ± 12.64% | – | – | – | – | – | – | – | – | – | – | – | – | – | Joint swelling [3, 17]: 0.73 ± 0.15 mm; Left and right paw swelling [3, 17]: 0.74 ± 0.13 mm; Clinical score [3, 17]: 8.98 ± 1.25; CNV Incidence rate ([5]; Day 3 after administration, 25 μg intravitreally once daily for 1 week (Table 53)): 55.29%; leakage Spots # ([5]; Day 3 after administration, 25 μg intravitreally once daily for 1 week (Table 53), total spots 290-296 by table): 162; CNV Incidence rate ([5]; Day 7, 25 μg intravitreally once daily for 1 week (Table 53)): 52.43%; leakage Spots # ([5]; Day 7, 25 μg intravitreally once daily for 1 week (Table 53), total spots 182-188 by table): 97; CNV Incidence rate ([5]; Day 14, 25 μg intravitreally once daily for 1 week (Table 53)): 47.10%; leakage Spots # ([5]; Day 14, 25 μg intravitreally once daily for 1 week (Table 53), total spots 132-138 by table): 65; CNV Incidence rate ([5]; Day 28, 25 μg intravitreally once daily for 1 week (Table 53)): 46.38%; leakage Spots # ([5]; Day 28, 25 μg intravitreally once daily for 1 week (Table 53), total spots 67-71 by table): 32; Neovascular clusters area ([6]; 25 μg intravitreal injection on day 13): 0.108 ± 0.008 mm^2; Inhibition rate ([6]; 25 μg intravitreal): 51.17%**

Reference: patent US10869931B2, “Polyethylene glycol-modified angiogenesis inhibitor HM-1 and application thereof” (NANJING ANJI BIOLOGICAL TECHNOLOGY CO.,LTD, priority 2016, dated 2020)
